Results reported in publication PMC10762068, “Selective blockade of Cav1.2 (α1C) versus Cav1.3 (α1D) L-type calcium channels by the black mamba toxin calciseptine” (Nature Communications, 2024).
Read-outs that look alike come from different tables or passages of the source. Positions of bridges follow the written chain, without caps; N, C: chain ends. No end group written: not given here.

How the values were obtained:
[1] = tested on: isolated perfused hearts from mice; experiment: Whole heart contractility and heart rate, Langendorff perfused mouse heart; settings: native Cas 100 nM, n=5
Experimental: Hearts were isolated from adult male mice anaesthetized with a first intraperitoneal injection of a mixture comprising ketamine (100 mg/kg) and xylazine (10 mg/kg), and a second one of sodium pentobarbital (45 mg/kg; Ceva Santé Animale, France). An intraperitoneal injection of heparin (7500IU/kg; Sanofi Aventis, France) was administered in order to avoid thrombus formation. A thoracotomy was performed and beating hearts were quickly removed and excised into ice-cold modified Krebs-Henseleit buffer containing (mM): NaCl 116; KCl 5; MgSO4 1.1; NaH2P0_4 0.35; NaHCO3 27; CaC1_2 1.8 and glucose 10. Buffer was gassed with 95% O2 and 5% CO2, giving a pH of 7.4 at 37 °C. Before use, the buffer was initially passed through a 0.2 µm filter (Sarstedt, USA). The aorta was cannulated under magnification and hearts were quickly mounted and perfused on the Langendorff perfusion system (Isolated heart system, EMKA Technologies, France). The coronary circulation was perfused at a constant pressure (70 mmHg) over a 1 to 4 ml/min flow range with modified Krebs-Henseleit buffer. During the stabilization phase, the heart was continuously perfused with modified Krebs-Henseleit and the electrocardiogram (ECG) was recorded through Ag/AgCl electrodes positioned on the right atrium and near the apex. Heart temperature was of 37 °C as continuously assessed by a probe positioned on the base of the heart and recorded by using a TH-5 monitoring thermometer (Phymep, USA). LV pressure was continuously measured by a home-made balloon inserted into the LV cavity by the left atrium and connected to the EMKA amplifier. After 20 min of stabilization (baseline), 100 nM Cas was perfused into the heart for 7 min. Then, the modified Krebs-Henseleit buffer was perfused for 1 h allowing to wash the effects of the Cas toxin. During the whole ex vivo protocol, the left ventricular pressure signals were continuously digitized at […] and recorded using an IOX data acquisition system (EMKA Technologies, France). Data were analyzed using ecgAUTOv3.3.3.12 (EMKA technologies) and MATLAB-R2021b (The MathWorks) custom-made script
(§1) In all experiments of cellular electrophysiology, we employed synthetized analog of Cas, commercially available at Latoxan (ID: L8109). The native peptide was purified from the venom of Dendroaspis polylepis purchased from Latoxan, as previoulsly described. The pure peptide was obtained after gel filtration, cation exchange and C18 reversed phase chromatography. Its measured molecular mass (7036.26 Da average) was in accordance with the mass calculated from sequence data (7036.22 Da).

[2] = tested on: Cav1.2 (ICav1.2) in isolated adult mouse ventricular myocytes; format: cell-based
[3] = tested on: Cav1.3_42; experiment: Whole cell recording of ICav1.3-42 in HEK-293T cells; format: cell-based; settings: for L-type Ca2+ current density: mean ± SEM, n=6
Experimental: HEK-293T (RRID:CVCL_2737) were obtained from the European Collection of Authenticated Cell Cultures (ECACC 96121229). The identity of HEK-293T has been confirmed by STR profiling and the cells have been eradicated from mycoplasma at ECACC. We routinely tested the cells for the absence of the mycoplasma contamination. Cells were cultivated at 37 °C in DMEM supplemented with GlutaMax, 10% fetal bovine serum and 1% penicillin/streptomycin (Invitrogen, Fisher Scientific, France). Transfections were performed using jet-PEI (Ozyme, France) with a DNA mix containing either the plasmids that code for Cav1.2-GFP, β2a and α2δ (0.8 µg of each) or either the plasmids that code for Cav1.3 (with and without exon 42a), or Cav2.1, or either Cav2.2 combined with β2a and α2δ (0.8 µg of each supplemented with 0.025 µg of a plasmid coding for GFP). For Cav3.1 expression β2a and α2δ subunits were omitted. Plasmids coding for β2a, α2δ and Cav1.3 were created as described previously. Plasmid coding for Cav1.2-GFP was obtained from Dr. Catalucci[60]. After transfection cells were placed at 30 °C for 2–3 days and dissociated with Versene (Invitrogen, Fisher Scientific, France) and plated at a density of ~35 × 10^3 cells per 35 mm Petri dish for electrophysiological recordings, which were performed the following day.
Macroscopic currents in HEK-293T cells were recorded at room temperature using an Axopatch 200B or Multiclamp 700B patchclamp amplifier (Molecular Devices, Sunnyvale CA). […] The extracellular solution contained (in mM): 135 NaCl, 20 TEACl, 5 BaCl2, 1 MgCl2, and 10 HEPES (pH adjusted to 7.25 with KOH, ~330 mOsm).
as §1

[4] = tested on: DHP-sensitive Ca2+ channel in smooth muscle cells of the guinea-pig portal vein; settings: cell-attached, 90 mM Ba2+ in the pipette; ref Teramoto et al, Pflugers Arch 1996; cited from earlier work
Text: This po int deserves further specific investigations and addit ional structural studies are required to elucidate the interaction and binding properties between Cas and Cav1.2 channel.

[5] = tested on: DHP binding site, brain synaptosomes; settings: at a rather high concentration; cited from earlier work
Text: DHPs are prototypical organic blockers of L-type calcium channels widely used in therapeutical applications.

RICYIHKASLPRATKTCVENTCYKMFIRTQREYISERGCGCPTAMWPYQTECCKGDRCNK (disulfide 3-22, 17-39, 41-52, 53-58 (inferred)) [Cas, calciseptine]
episodes of arrhythmia [1]: did not observe episodes of arrhythmia | left ventricular (LV) contraction amplitude ([1]; perfused 7 min, 37 °C, before 51 ± 3 mmHg, mean ± SEM): 9 ± 2 mmHg | contraction velocity (dP/dt max) ([1]; before 1.7 ± 0.2, mean ± SEM): 0.4 ± 0.1 mmHg/ms | baseline diastolic pressure ([1]; before 8 ± 2 mmHg, mean ± SEM): 8 ± 3 mmHg | relaxation time constant (Ƭ) ([1]; before 10 ± 1 ms, not affected, mean ± SEM): 13 ± 2 ms | time-to-peak interval (time to maximal pressure) ([1]; before 54 ± 1 ms, not affected, mean ± SEM): 50 ± 3 ms | averaged inter-beat (RR) interval ([1]; before 273 ± 17 ms, p > 0.05, mean ± SEM): 271 ± 17 ms | relaxation velocity (dP/dt min) ([1]; before −1.2 ± 0.1, mean ± SEM): −0.1 ± 0.1 mmHg/ms | L-type Ca2+ current density ([2]; Cas 100 nM alone or + Nife 3 µM, +10 mV, Ctrl -9.81±1.32, n=9): -6.14±1.02 pA/pF | L-type Ca2+ current density ([2]; Cas 100 nM alone or + Nife 3 µM, +20 mV, Ctrl -8.04±1.33, n=9): -5.17±0.93 pA/pF | L-type Ca2+ current density ([2]; Cas 100 nM alone or + Nife 3 µM, +40 mV, Ctrl -3.68±0.68, n=9): -2.24±0.46 pA/pF | L-type Ca2+ current density ([2]; Cas 100 nM alone or + Nife 3 µM, -10 mV, Ctrl -5.27±0.86, n=9): -3.45±0.54 pA/pF | L-type Ca2+ current density ([2]; Cas 100 nM alone or + Nife 3 µM, -20 mV, Ctrl -1.26±0.27, n=9): -1.21±0.20 pA/pF | reduction of ICav1.2 ([2]; Cas 100 nM, 300 nM, 1 µM, voltages −25 mV to +40 mV, holding −55 mV): dose-dependently reduced | L-type Ca2+ current density ([2]; Cas 300 nM alone or + Nife 3 µM, 0 mV, Ctrl -10.51±1.51, n=7): -3.07±0.59 pA/pF | L-type Ca2+ current density ([2]; Cas 300 nM alone or + Nife 3 µM, +10 mV, Ctrl -10.15±1.38, n=7): -3.66±0.55 pA/pF | L-type Ca2+ current density ([2]; Cas 300 nM alone or + Nife 3 µM, +20 mV, Ctrl -8.09±1.11, n=7): -3.32±0.45 pA/pF | L-type Ca2+ current density ([2]; Cas 300 nM alone or + Nife 3 µM, +40 mV, Ctrl -3.36±0.49, n=7): -1.58±0.23 pA/pF | L-type Ca2+ current density ([2]; Cas 300 nM alone or + Nife 3 µM, -10 mV, Ctrl -6.58±1.29, n=7): -1.63±0.37 pA/pF | L-type Ca2+ current density ([2]; Cas 300 nM alone or + Nife 3 µM, -20 mV, Ctrl -2.02±0.86, n=7): -0.52±0.07 pA/pF | L-type Ca2+ current density ([2]; Cas 1 µM alone or + Nife 3 µM, 0 mV, Ctrl -9.85±1.04, n=6): -2.28±0.33 pA/pF | L-type Ca2+ current density ([2]; Cas 1 µM alone or + Nife 3 µM, +10 mV, Ctrl -8.83±1,09, n=6): -3.38±0.15 pA/pF | L-type Ca2+ current density ([2]; Cas 1 µM alone or + Nife 3 µM, +20 mV, Ctrl -6.41±0.90, n=6): -3.38±0.12 pA/pF | L-type Ca2+ current density ([2]; Cas 1 µM alone or + Nife 3 µM, +40 mV, Ctrl -2.75±0.60, n=6): -1.35±0.11 pA/pF | L-type Ca2+ current density ([2]; Cas 1 µM alone or + Nife 3 µM, -10 mV, Ctrl -7.71±0.98, n=6): -0.87±0.23 pA/pF | L-type Ca2+ current density ([2]; Cas 1 µM alone or + Nife 3 µM, -20 mV, Ctrl -3.53±0.98, n=6): -0.34±0.07 pA/pF | reduction of Ca current, long form of Cav1.3 (Cav1.3L) ([3]; Cas 300 nM and 1 µM): did not observe any reduction | effect on ICav1.3-42 (I-V relationship) ([3]; Cas 300 nM, all voltages tested, at peak p = 0.5696, n=6/N=3): no significant effect | L-type Ca2+ current density ([3]; Cas 300 nM, 0 mV, Ctrl -15.10± 3.34): -14.76± 4.28 pA/pF | L-type Ca2+ current density ([3]; Cas 300 nM, +10 mV, Ctrl -12.01± 2.36): -11.09± 3.45 pA/pF | L-type Ca2+ current density ([3]; Cas 300 nM, +20 mV, Ctrl -6.20± 1.35): -6.12± 2.78 pA/pF | L-type Ca2+ current density ([3]; Cas 300 nM, +30 mV, Ctrl -3.03± 0.66): -2.96± 2.36 pA/pF | L-type Ca2+ current density ([3]; Cas 300 nM, -10 mV, Ctrl -15.68± 3.76): -15.81± 4.50 pA/pF | L-type Ca2+ current density ([3]; Cas 300 nM, -20 mV, Ctrl -12.28± 3.31): -12.95± 3.93 pA/pF | reduction of ICav1.3-42 ([3]; all concentrations tested (up to 1 µM), holding −60 mV, step 0 mV, 300 nM n=6/N=3, 1 µM n=7/N=3): did not record a statistically significant reduction | block of 25-pS and 12-pS channel conductances [4]: Both conductances were blocked | inhibition of DHP binding [5]: could inhibit binding of DHPs
